Data taken from patent US4612302A, “Clinical use of somatostatin analogues” (Brigham and Women's Hospital, priority 1983, dated 1986).
Non-standard residues stand in square brackets, D forms with d. Residues, ends and D or L forms follow the SMILES beside them. No end group written: not given here.

Legend:
[1] = system: phagocytes; experiment: Carbon clearance (colloidal carbon / India ink) from the blood of rats; assay type: in vivo, female Spraque-Dawley rats; settings: for India ink (μl/ml blood) 3 min: 3 min after i.v. colloidal carbon; for India ink (μl/ml blood) 3 min / India ink (μl/ml blood) 6 min / India ink (μl/ml blood) 12 min / India ink (μl/ml blood) 24 min: 50 μg i.v. once daily for 3 days before carbon; for India ink (μl/ml blood) 6 min: 6 min after i.v. colloidal carbon; for India ink (μl/ml blood) 12 min: 12 min after i.v. colloidal carbon; for India ink (μl/ml blood) 24 min: 24 min after i.v. colloidal carbon; for Speed of action in carbon clearance compared with somatostatin: greater carbon clearance at 6 minutes than somatostatin; for Potency in carbon clearance compared with somatostatin: lower levels of carbon at the late time intervals
Experimental: Rats were injected either with saline or with a colloidal carbon suspension, and the time required for clearing of colloidal particles from the blood stream was measured. In a comparative experiment, zymosan, an agent known to increase the activity or phagocytes, was administered instead of the somatostatin analogue. In rats which received injections of saline, the disappearance of colloidal carbon from the blood was virtually linear, an expected result based on previous studies by others. Administration of a somatostatin analogue markedly accelerated the carbon clearance, even more so than for somatostatin itself.
(§1) All of the experiments described below were performed in female Spraque-Dawley rats (ESS Laboratories, Lynnfield, Mass.) with an initial body weight of 150-180 g, and with unlimited access to Purina laboratory chow and tap water. Control and experimental groups consisted of 3-4 rats. Each experiment was repeated at least twice and the results were pooled. Analogue I is cyclo[L-Pro-Phe-D-Trp-Lys-Thr-L-Phe]. Analogue II is cyclo[L-Phe-Phe-L-Trp-Lys-Thr-D-Phe]. These are preferred compounds for all aspects of the invention. The compound can be synthesized according to the procedure described in Veber et al., Nature, 292, 55-58 (1981), which is herein incorporated by reference. Basically, the linear peptide is prepared by a solid phase technique, for example, using a Beckman 990 peptide synthesizer following the protocol described in Strachan et al, J. Med. Chem., 22, 586-588 (1979), which is herein incorporated by reference. The linear peptide can then be cyclized by the technique of Veber et al, Proc. Natl. Acad. Sci. USA, 75, 2636-2640 (1978), which is also herein incorporated by reference. Linear or cyclic somatostatin (Serono) or a somatostatin analogue was injected under mild ether anesthesia at 50 μg in 0.5 ml of saline into the jugular vein once daily for 3 consecutive days prior to injection with carbon. Control animals were injected with the same amount of saline. In all of the carbon clearance experiments, 0.1 ml/100 g of the supernatant of centrifuged (3000 rpm/15 min) colloidal carbon (Wagner's india ink) was injected i.v. under mild ether anesthesia. Blood samples (50 μl) were obtained with heparinized glass capillaries and by puncture of the retro-orbital venous plexus at 3, 6, 12 and 24 minutes after the administration of carbon. The blood samples were lysed in 2 ml of 0.1% Na2 CO3 solution and the quantity of carbon in the blood was measured.

[2] = system: liver injury induced by galactosamine; experiment: Galactosamine-induced liver injury (hepatic necrosis and inflammation) in rats; assay type: in vivo, female Spraque-Dawley rats; settings: 28 hr after galactosamine 1 g/kg i.p., somatostatin 250 μg, analogues 125 μg i.p.; for Liver histology (Scale: 0-4): scale 0-4, 4 = greatest damage
Experimental: as §1
The liver protection studies included the effect of somatostatin and analogues on liver injury induced by galactosamine or phalloidin. Galactosamine-induced hepatic necrosis and inflammation was produced by injecting rats with 1 g/kg of galactosamine i.p. at 0 hr. Regular somatostatin was injected at 250 μg, analogues at 125 μg i.p. at -30 and […]. The animals were killed at 28 hr after galactosamine. Liver damage was measured by the elevation of serum transaminase (SGOT) and by liver histology (scale: 0-4 with 4 indicating the greatest damage).

[3] = system: liver injury induced by phalloidin; experiment: Phalloidin-induced liver and hepatic blood vessel lesions in rats; assay type: in vivo; settings: phalloidin 0.12 mg per 100 g i.p.
Experimental: This toxin kills rats within about 4 hours after intraperitoneal injection. Rats injected with 0.12 mg phalloidin per 100 g body weight (i.p.) show a massive increase in liver size accompanied by hemorrhage. In a control group of rats given phalloidin but no somatostatin analogue, 22 of 24 rats died within 2-4 hours.
In both cases, rats were given saline (control), phalloidin alone, or phalloidin and a somatostatin analogue. Somatostatin analogues were given in subcutaneous injections in a solution of protamine sulfate and zinc chloride in order to prolong its effectiveness, or in normal saline.
In the biochemical experiments, the animals were also injected with Evans blue 15 min before autopsy. At autopsy the portal vein was perfused in situ with 20 ml of saline to remove blood from hepatic vaculature. Phalloidin caused a time dependent increase in the hepatic uptake of Evans blue, indicative of leakage of blood into the tissue through blood vessel lesions. Somatostatin analogue treatment virtually abolished this enhanced uptake of the dye. In the morphologic experiments, groups of rats were also injected with colloidal carbon (India ink, […] i.v.) 15 min before autopsy. At that time pieces of liver were processed for subsequent light or electron microscopic studies. […]

C[C@@H](O)[C@@H]1NC(=O)[C@H](CCCCN)NC(=O)[C@@H](Cc2c[nH]c3ccccc23)NC(=O)[C@H](Cc2ccccc2)NC(=O)[C@@H]2CCCN2C(=O)[C@H](Cc2ccccc2)NC1=O [Analogue I, cyclo[L-Pro-Phe-D-Trp-Lys-Thr-L-Phe]] (cyclo(PF[dW]KTF))
India ink (μl/ml blood) 3 min [1]: 12.5 ± 3.0 μl/ml blood | India ink (μl/ml blood) 6 min [1]: 6.9 ± 0.9 μl/ml blood | India ink (μl/ml blood) 12 min [1]: 2.6 ± 0.7 μl/ml blood | India ink (μl/ml blood) 24 min [1]: 2.4 ± 0.5 μl/ml blood | Speed of action in carbon clearance compared with somatostatin [1]: faster acting | Potency in carbon clearance compared with somatostatin [1]: more potent than somatostatin | SGOT (U/l) [2]: 573 ± 138 U/l | Liver histology (Scale: 0-4) [2]: 1.1 ± 0.1

C[C@@H](O)[C@@H]1NC(=O)[C@H](CCCCN)NC(=O)[C@H](Cc2c[nH]c3ccccc23)NC(=O)[C@H](Cc2ccccc2)NC(=O)[C@H](Cc2ccccc2)NC(=O)[C@@H](Cc2ccccc2)NC1=O [Analogue II, cyclo[L-Phe-Phe-L-Trp-Lys-Thr-D-Phe]] (cyclo(FFWKT[dF]))
India ink (μl/ml blood) 3 min [1]: 13.2 ± 2.0 μl/ml blood | India ink (μl/ml blood) 6 min [1]: 5.6 ± 0.5 μl/ml blood | India ink (μl/ml blood) 12 min [1]: 3.2 ± 0.9 μl/ml blood | India ink (μl/ml blood) 24 min [1]: 1.8 ± 0.2 μl/ml blood | Speed of action in carbon clearance compared with somatostatin [1]: faster acting | Potency in carbon clearance compared with somatostatin [1]: more potent than somatostatin | SGOT (U/l) [2]: 700 U/l | Liver histology (Scale: 0-4) [2]: 1.0

C[C@H](N)C(=O)NCC(=O)N[C@H]1CSSC[C@@H](C(=O)O)NC(=O)[C@H](CO)NC(=O)[C@H]([C@@H](C)O)NC(=O)[C@H](Cc2ccccc2)NC(=O)[C@H]([C@@H](C)O)NC(=O)[C@H](CCCCN)NC(=O)[C@H](Cc2c[nH]c3ccccc23)NC(=O)[C@H](Cc2ccccc2)NC(=O)[C@H](Cc2ccccc2)NC(=O)[C@H](CC(N)=O)NC(=O)[C@H](CCCCN)NC1=O [Regular linear somatostatin, somatostatin]
India ink (μl/ml blood) 3 min [1]: 11.7 ± 0.1 μl/ml blood | India ink (μl/ml blood) 6 min [1]: 11.9 ± 2.6 μl/ml blood | India ink (μl/ml blood) 12 min [1]: 5.3 ± 1.4 μl/ml blood | India ink (μl/ml blood) 24 min [1]: 2.6 ± 0.1 μl/ml blood

somatostatin (AGCKNFFWKTFTSC; not fully specified (bridges); cysteine pairing not given here; UniProt P61278 103-116, looked up) [cyclic tetradecapeptide hormone, reference compound]
SGOT (U/l) [2]: 1757 ± 681 U/l | Liver histology (Scale: 0-4) [2]: 2.6 ± 0.3 | Histologic examination of the liver after phalloidin [3]: milder vacuolization of hepatocytes and less congestion | Mortality after phalloidin ([3]; control 22 of 24 rats died): significantly smaller number of rats
